In patent publication EP4563151A1, “PHARMACEUTICAL COMPOSITION COMPRISING KRAS G12D INHIBITOR” (Jiangsu Hengrui Pharmaceuticals Co., Ltd., priority 2022, dated 2024):

What was measured:
KRAS protein subtype WT = KRAS protein subtype WT (Homo sapiens, UniProt P01116); test: Affinity for KRAS protein subtype WT by SPR method (Biacore 8K); assay type: binding; conditions: biotinylated Avi-KRAS-WT, single-cycle kinetic mode, 1:1 model
Experimental: (§1) Biotinylated Avi-KRAS-WT or Avi-KRAS-G12D was diluted to 20 µg/mL with a 1× HBS-P+ (Cat. # BR1006-71) buffer containing 100 mM MgCl2 and then allowed to flow through channel 2 of an SA (Cat. # BR1005-31) biosensor chip for 420 s to obtain a coupling level of approximately 5000-7000 RU. Then samples of the compound were injected sequentially in descending order for 120 s, followed by 720 s of dissociation. The testing was performed using a single-cycle kinetic mode. Reaction signals were detected in real time using a Biacore 8K instrument to obtain association and dissociation curves. After the testing was finished, data analysis was performed using Biacore 8K evaluation software. Data fitting was performed using a 1:1 model, and affinity data were obtained.

AGS cells = test: Inhibition of 3D proliferation of AGS cells (CellTiter-Glo 3D); assay type: cell-based; conditions: Homo sapiens, 120 h incubation
Experimental: (§2) The inhibitory effect of the compound represented by formula I on the KRAS target was evaluated by assessing the inhibitory effect of the compound represented by formula I on the 3D proliferation of GP2d and AGS cells.
(§3) AGS cells (Nanjing Cobioer, CBP60476) were cultured in a complete culture medium, namely an RPMI1640 medium (Hyclone, SH30809.01) containing 10% fetal bovine serum (Corning, 35-076-CV). On the first day of the experiment, the AGS cells were seeded into a 96-well low-adsorption plate (Corning, CLS7007-24EA) with a complete culture medium at a density of 1000 cells/well, with each well containing 90 µL of a cell suspension. The plate was centrifuged at 2000 rpm for 5 min at room temperature and then incubated overnight in a cell incubator at 37 °C with 5% CO2.
(§4) The next day, the test compound, serially diluted in a complete culture medium, was added at 10 µL/well. The final concentrations of the compound for GP2d cells were 9 concentration points obtained by 3-fold serial dilution from 1 µM, and the final concentrations of the compound for AGS cells were 9 concentration points obtained by 3-fold serial dilution from 10 µM. A blank control containing 0.5% DMSO was set for both types of cells. The plates were incubated in a cell incubator at 37 °C with 5% CO2 for 120 h. […] The luminescence signal values were obtained using a multimode microplate reader (PerkinElmer, ENVISION). […]

[1] = system: ERK phosphorylation in AGS cells; test: Inhibition of ERK phosphorylation in AGS cells (HTRF method); assay type: cell-based; conditions: Homo sapiens, 1 h incubation with compound, phosphorylated ERK/total ERK ratio
Experimental: In the experiment, the inhibitory effect of the compound represented by formula I on the KRAS target was evaluated by assessing the inhibitory effect of the compound on ERK phosphorylation in cells and based on the IC50.
AGS cells (Nanjing Cobioer, CBP60476) were cultured in an RPMI1640 (Hyclone, SH30809.01) complete culture medium containing 10% fetal bovine serum. On the first day of the experiment, the AGS cells were seeded into a 96-well plate with a complete culture medium at a density of 40,000 cells/well, with each well containing 190 µL of a cell suspension. The plate was incubated overnight in a cell incubator at 37 °C with 5% CO2.
The next day, the test compound, serially diluted in a complete culture medium, was added at 10 µL/well. The final concentrations of the compound were 9 concentration points obtained by 5-fold serial dilution from 10 µM. A blank control containing 0.5% DMSO was set. The plate was incubated in a cell incubator at 37 °C with 5% CO2 for 1 h. […]
On the third day, the fluorescence values at an excitation wavelength of 337 nm and emission wavelengths of 665 nm and 620 nm were obtained using an ENVISION multimode microplate reader (PerkinElmer, ENVISION).
The IC50 value for the inhibitory activity of the compound was calculated using Graphpad Prism software based on the compound concentration and the phosphorylated ERK/total ERK ratio. […]

[2] = target: KRAS protein subtype G12D (Homo sapiens, UniProt P01116, G12D); test: Affinity for KRAS protein subtype G12D by SPR method (Biacore 8K); assay type: binding; conditions: biotinylated Avi-KRAS-G12D, single-cycle kinetic mode, 1:1 model
Sequence of KRAS protein subtype G12D (P01116 1-188 isoform P01116-2 G12D): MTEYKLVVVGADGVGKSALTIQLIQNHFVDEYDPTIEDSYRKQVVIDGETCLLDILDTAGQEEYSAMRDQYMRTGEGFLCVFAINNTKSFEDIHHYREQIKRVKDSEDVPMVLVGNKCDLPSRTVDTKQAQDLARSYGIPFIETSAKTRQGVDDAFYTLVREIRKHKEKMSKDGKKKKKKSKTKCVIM
Experimental: as §1

GP2d cells = test: Inhibition of 3D proliferation of GP2d cells (CellTiter-Glo 3D); assay type: cell-based; conditions: 120 h incubation
Experimental: as §2
as §3, with “GP2d” for “AGS”, “CBP60010)” for “CBP60476)”, “a DMEM/high glucose culture” for “an RPMI1640”, “SH30243.01)” for “SH30809.01)”
as §4, with “cells.” for “cells. The plates were incubated in a cell incubator at 37 °C with 5% CO2 for 120 h.”

Sequence of KRAS protein subtype WT (P01116 1-188 isoform P01116-2): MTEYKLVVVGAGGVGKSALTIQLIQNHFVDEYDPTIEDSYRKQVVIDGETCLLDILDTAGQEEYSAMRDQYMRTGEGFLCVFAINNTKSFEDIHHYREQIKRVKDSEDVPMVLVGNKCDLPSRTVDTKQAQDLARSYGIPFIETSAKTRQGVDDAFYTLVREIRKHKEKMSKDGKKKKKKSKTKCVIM

CCc1c(F)ccc2cc(O)cc(-c3nc4c5c(nc(OC[C@@]67CCCN6C[C@H](F)C7)nc5c3F)N3C[C@H]5CC[C@H](N5)[C@H]3CO4)c12 [Compound represented by formula I, 5-Ethyl-6-fluoro-4-((5aS,6S,9R)-1-fluoro-12-(((2R,7aS)-2-fluorotetrahydro-1H-pyrrolizin-7a(5H)-yl)methoxy)-5a,6,7,8,9,10-hexahydro-5H-4-oxa-3,10a,11,13,14-pentaaza-6,9-methanonaphtho[1,8-ab]heptalen-2-yl)naphthalen-2-ol]
Kd (KRAS protein subtype WT): 1.54 nM
IC50 (AGS cells): 5.8 nM
IC50 [1]: 0.4 nM
Kd [2]: 0.03 nM
IC50 (GP2d cells): 0.9 nM
